What was measured:
Test in all cases: relative viability (nuclei count vs DMSO), 5 days (fraction); higher = more cells survive
ABC-1 = tested on: ABC-1
Outline: (§1)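 After 5 days of treatment, lung cancer cells in 1536-well plates were fixed and stained in a single step (final 0.05% Triton X-100, 1% formaldehyde, 1 ug/ml Hoechst) and their nuclei counted on 4× images. Treatment had been applied by pin tool the day after seeding as one drug alone or as a fixed anchor-drug dose with five library-drug doses (not always all listed) in √10 steps. Relative viability is the nuclei count of treated wells divided by that of vehicle wells, and values are medians of duplicate plates.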

CAL-12T = tested on: CAL-12T
Outline: as §1

ChaGo-K-1 = tested on: ChaGo-K-1
Outline: as §1

EMC-BAC-2 = tested on: EMC-BAC-2
Outline: as §1

EPLC-272H = tested on: EPLC-272H
Outline: as §1

HCC-15 = tested on: HCC-15
Outline: as §1

HCC-78 = tested on: HCC-78
Outline: as §1

HOP-62 = tested on: HOP-62
Outline: as §1

LXF-289 = tested on: LXF-289
Outline: as §1

NCI-H1666 = tested on: NCI-H1666
Outline: as §1

NCI-H1755 = tested on: NCI-H1755
Outline: as §1

NCI-H1915 = tested on: NCI-H1915
Outline: as §1

NCI-H1975 = tested on: NCI-H1975
Outline: as §1

NCI-H2085 = tested on: NCI-H2085
Outline: as §1

NCI-H2126 = tested on: NCI-H2126
Outline: as §1

NCI-H3122 = tested on: NCI-H3122
Outline: as §1

NCI-H322M = tested on: NCI-H322M
Outline: as §1

NCI-H358 = tested on: NCI-H358
Outline: as §1

NCI-H441 = tested on: NCI-H441
Outline: as §1

`CC(=O)O[C@@]12CO[C@@H]1C[C@H](O)[C@@]1(C)C(=O)[C@H](O)C3=C(C)[C@@H](OC(=O)[C@H](O)[C@@H](NC(=O)OC(C)(C)C)c4ccccc4)C[C@@](O)([C@@H](OC(=O)c4ccccc4)[C@H]21)C3(C)C` [Docetaxel] + NC(=O)Nc1cc(-c2cccc(F)c2)sc1C(=O)N[C@H]1CCCNC1 [AZD7762] (partner 0.2 µM) gave a relative viability (ABC-1; first compound 0.0002 µM) of 0.826, a relative viability (ABC-1; first compound 0.000632 µM) of 0.795 and a relative viability (ABC-1; first compound 0.002 µM) of 0.619. It also gave a relative viability (ABC-1; first compound 0.006325 µM) of 0.297, a relative viability (ABC-1; first compound 0.02 µM) of 0.222 and a relative viability (CAL-12T; first compound 0.0002 µM) of 0.595. The relative viability (CAL-12T; first compound 0.000632 µM) was 0.452, the relative viability (CAL-12T; first compound 0.002 µM) was 0.491 and the relative viability (CAL-12T; first compound 0.02 µM) was 0.176. For the same compound, the relative viability (ChaGo-K-1; first compound 0.0002 µM) was 0.817, the relative viability (ChaGo-K-1; first compound 0.000632 µM) was 0.792 and the relative viability (ChaGo-K-1; first compound 0.002 µM) was 0.578. It also gave a relative viability (ChaGo-K-1; first compound 0.006325 µM) of 0.27, a relative viability (ChaGo-K-1; first compound 0.02 µM) of 0.161 and a relative viability (EMC-BAC-2; first compound 0.0002 µM) of 1.03. For the same compound, the relative viability (EMC-BAC-2; first compound 0.000632 µM) was 0.885, the relative viability (EMC-BAC-2; first compound 0.002 µM) was 0.467 and the relative viability (EMC-BAC-2; first compound 0.006325 µM) was 0.334. For the same compound, the relative viability (EMC-BAC-2; first compound 0.02 µM) was 0.369, the relative viability (EPLC-272H; first compound 0.000632 µM) was 0.191 and the relative viability (EPLC-272H; first compound 0.002 µM) was 0.0912. For the same compound, the relative viability (EPLC-272H; first compound 0.006325 µM) was 0.149, the relative viability (EPLC-272H; first compound 0.02 µM) was 0.0556 and the relative viability (HCC-15; first compound 0.0002 µM) was 1.18. It also gave a relative viability (HCC-15; first compound 0.000632 µM) of 1.02, a relative viability (HCC-15; first compound 0.002 µM) of 0.433 and a relative viability (HCC-15; first compound 0.006325 µM) of 0.289. For the same compound, the relative viability (HCC-15; first compound 0.02 µM) was 0.256, the relative viability (HCC-78; first compound 0.0002 µM) was 0.479 and the relative viability (HCC-78; first compound 0.000632 µM) was 0.545. The relative viability (HCC-78; first compound 0.002 µM) was 0.318, the relative viability (HCC-78; first compound 0.006325 µM) was 0.394 and the relative viability (HCC-78; first compound 0.02 µM) was 0.364. The relative viability (HOP-62; first compound 0.0002 µM) was 0.6, the relative viability (HOP-62; first compound 0.000632 µM) was 0.395 and the relative viability (HOP-62; first compound 0.02 µM) was 0.0943. For the same compound, the relative viability (LXF-289; first compound 0.0002 µM) was 1.1, the relative viability (LXF-289; first compound 0.000632 µM) was 0.664 and the relative viability (LXF-289; first compound 0.002 µM) was 0.346. It also gave a relative viability (LXF-289; first compound 0.006325 µM) of 0.129, a relative viability (LXF-289; first compound 0.02 µM) of 0.0873 and a relative viability (NCI-H1666; first compound 0.0002 µM) of 0.692. The relative viability (NCI-H1666; first compound 0.000632 µM) was 0.695, the relative viability (NCI-H1666; first compound 0.002 µM) was 0.521 and the relative viability (NCI-H1666; first compound 0.006325 µM) was 0.465. For the same compound, the relative viability (NCI-H1666; first compound 0.02 µM) was 0.359, the relative viability (NCI-H1755; first compound 0.0002 µM) was 0.488 and the relative viability (NCI-H1755; first compound 0.000632 µM) was 0.396. The relative viability (NCI-H1755; first compound 0.002 µM) was 0.324, the relative viability (NCI-H1755; first compound 0.006325 µM) was 0.401 and the relative viability (NCI-H1755; first compound 0.02 µM) was 0.352. The relative viability (NCI-H1915; first compound 0.0002 µM) was 0.638, the relative viability (NCI-H1915; first compound 0.000632 µM) was 0.703 and the relative viability (NCI-H1915; first compound 0.002 µM) was 0.527. For the same compound, the relative viability (NCI-H1915; first compound 0.006325 µM) was 0.182, the relative viability (NCI-H1915; first compound 0.02 µM) was 0.107 and the relative viability (NCI-H1975; first compound 0.0002 µM) was 0.721. The relative viability (NCI-H1975; first compound 0.000632 µM) was 0.601, the relative viability (NCI-H1975; first compound 0.002 µM) was 0.389 and the relative viability (NCI-H1975; first compound 0.006325 µM) was 0.24. It also gave a relative viability (NCI-H1975; first compound 0.02 µM) of 0.169, a relative viability (NCI-H2085; first compound 0.0002 µM) of 0.963 and a relative viability (NCI-H2085; first compound 0.000632 µM) of 0.954. The relative viability (NCI-H2085; first compound 0.002 µM) was 0.849, the relative viability (NCI-H2085; first compound 0.006325 µM) was 0.338 and the relative viability (NCI-H2085; first compound 0.02 µM) was 0.309. It also gave a relative viability (NCI-H2126; first compound 0.0002 µM) of 1.07, a relative viability (NCI-H2126; first compound 0.000632 µM) of 1 and a relative viability (NCI-H2126; first compound 0.002 µM) of 0.571. For the same compound, the relative viability (NCI-H2126; first compound 0.006325 µM) was 0.395, the relative viability (NCI-H3122; first compound 0.0002 µM) was 0.939 and the relative viability (NCI-H3122; first compound 0.000632 µM) was 0.818. It also gave a relative viability (NCI-H3122; first compound 0.002 µM) of 0.843, a relative viability (NCI-H3122; first compound 0.006325 µM) of 0.171 and a relative viability (NCI-H3122; first compound 0.02 µM) of 0.121. For the same compound, the relative viability (NCI-H322M; first compound 0.0002 µM) was 0.611, the relative viability (NCI-H322M; first compound 0.000632 µM) was 0.459 and the relative viability (NCI-H322M; first compound 0.002 µM) was 0.451. For the same compound, the relative viability (NCI-H322M; first compound 0.006325 µM) was 0.509, the relative viability (NCI-H322M; first compound 0.02 µM) was 0.39 and the relative viability (NCI-H358; first compound 0.0002 µM) was 0.429. The relative viability (NCI-H358; first compound 0.000632 µM) was 0.328, the relative viability (NCI-H358; first compound 0.006325 µM) was 0.24 and the relative viability (NCI-H358; first compound 0.02 µM) was 0.159. It also gave a relative viability (NCI-H441; first compound 0.0002 µM) of 1.06, a relative viability (NCI-H441; first compound 0.000632 µM) of 1.15 and a relative viability (NCI-H441; first compound 0.002 µM) of 0.263. It also gave a relative viability (NCI-H441; first compound 0.006325 µM) of 0.221 and a relative viability (NCI-H441; first compound 0.02 µM) of 0.167.
